From US12728119B2, “Pharmaceutical composition for preventing or treating cancer comprising 3-ketoacyl CoA thiolase inhibitor and carnitine acylcarnitine carrier inhibitor” (NATIONAL CANCER CENTER, priority 2020, dated 2026)
“And” between values parts separate entries of the source, which are not always exact repeats. Equal values may be shown once.

Legend:
Format in all cases: cell-based
[1] = system: Huh-7 liver cancer cell line; test: SRB analysis 3; details: 48 hours
Method: (§1) Through SRB analysis (n=3), the effect of triple combination treatment of a CAC inhibitor (KN510: omeprazole), ACAA inhibitor (KN713: trimetazidine) and other anticancer drug on cell growth in the cancer cells was analyzed. (see Table 11).
(§2) The SRB assay was performed as follows: each cell line (100 μl) was seeded into 96-well microtiter plates at densities ranging from 5,000 to 40,000 cells/well depending on the doubling time of each cell line. After 24 hours, drug (100 μl per well) was added to each well and the culture was incubated at 37° C. for 48 hours. Cells were then fixed in 50% TCA (50 μl per well) and plates were incubated at 4° C. for a minimum of 1 hour or a maximum of 3 hours. After that, the liquid was removed from the plate, then rinsed 5 times with water and dried for approximately 12-24 hours at room temperature (RT). After the fixed cells were stained with 0.4% SRB (100 μl per well) for 10 minutes at room temperature, the plates were washed 3 times with 1% glacial acetic acid and dried at room temperature for about 12-24 hours. SRB staining was dissolved in 10 mM Trizma base and absorbance was read at 515 nm. The effect of the drug was expressed as GI50 (50% growth inhibition), TGI (total growth inhibition) or LC50 (lethal concentration). GI50 is the maximum concentration at the moment of 50% inhibition of cell proliferation and IC50 is the concentration of the drug that inhibits the enzyme activity in vitro by 50% in this study.

[2] = system: COLO-205 colon cancer cell line; test: SRB analysis 3; details: 48 hours
Method: as §1, §2

[3] = system: AsPC-1 pancreatic cancer (PDAC) cell line; test: SRB analysis 3; details: 48 hours
Method: as §1, §2

[4] = system: H1975 non-small cell lung cancer (NSCLC) cell line; test: SRB analysis 3; details: 48 hours
Method: as §1, §2

[5] = system: MIA PaCa-2 pancreatic cancer (PDAC) cell line; test: SRB analysis 3; details: 48 hours
Method: as §1, §2

[6] = system: UACC62 melanoma cell line; test: SRB analysis 3; details: 48 hours
Method: as §1, §2

[7] = system: AGS gastric cancer cell line; test: SRB analysis 3; details: 48 hours
Method: as §1, §2

[8] = system: MDA-MB-231 breast cancer cell line; test: SRB analysis 3; details: 48 hours
Method: as §1, §2

[9] = system: HCT-116 colon cancer cell line; test: SRB analysis 3; details: 48 hours
Method: as §1, §2

[10] = system: SK-hep-1 liver cancer cell line; test: SRB analysis 3; details: 48 hours
Method: as §1, §2

[11] = system: ACHN renal cancer cell line; test: SRB analysis 3; details: 48 hours
Method: as §1, §2

[12] = system: MCF7 breast cancer cell line; test: SRB analysis 3; details: 48 hours
Method: as §1, §2

A375 melanoma cell line = test: SRB analysis 3; details: 48 hours
Method: as §1, §2

[13] = system: OVCAR-8 ovarian cancer cell line; test: SRB analysis 3; details: 48 hours
Method: as §1, §2

[14] = system: MKN45 gastric cancer cell line; test: SRB analysis 3; details: 48 hours
Method: as §1, §2

[15] = system: PC-3 prostate cancer cell line; test: SRB analysis 3; details: 48 hours
Method: as §1, §2

[16] = system: Caki-1 renal cancer cell line; test: SRB analysis 3; details: 48 hours
Method: as §1, §2

[17] = system: A549 non-small cell lung cancer (NSCLC) cell line; test: SRB analysis 3; details: 48 hours
Method: as §1, §2

[18] = system: DU145 prostate cancer cell line; test: SRB analysis 3; details: 48 hours
Method: as §1, §2

[19] = system: SK-OV-3 ovarian cancer cell line; test: SRB analysis 3; details: 48 hours
Method: as §1, §2

cancer cells = test: SRB analysis 3, triple combination, summary over cancer panels
Method: as §1, §2

[20] = system: U87MG glioblastoma (GBM) cell line; test: SRB analysis 3; details: Cisplatin 1 μM, 48 hours
Method: as §2, with “Through SRB analysis (n=3), the effect of triple combination treatment of a CAC inhibitor ([…] inhibitor (KN713: trimetazidine) and other anticancer drug on cell growth in the cancer cells was analyzed. (see Table 11). The” for “The”, “nm.” for “nm. The effect of the drug was expressed as GI50 (50% growth inhibition), TGI (total growth inhibition) or LC50 (lethal concentration). GI50 is the maximum concentration at the moment of 50% inhibition of cell proliferation and IC50 is the concentration of the drug that inhibits the enzyme activity in vitro by 50% in this study.”

[21] = system: T87G glioblastoma (GBM) cell line; test: SRB analysis 3; details: Cisplatin 1 μM, 48 hours
Method: as §2, with “Through SRB analysis (n=3), the effect of triple combination treatment of a CAC inhibitor ([…] inhibitor (KN713: trimetazidine) and other anticancer drug on cell growth in the cancer cells was analyzed. (see Table 11). The” for “The”, “nm.” for “nm. The effect of the drug was expressed as GI50 (50% growth inhibition), TGI (total growth inhibition) or LC50 (lethal concentration). GI50 is the maximum concentration at the moment of 50% inhibition of cell proliferation and IC50 is the concentration of the drug that inhibits the enzyme activity in vitro by 50% in this study.”

[22] = system: AsPC-1 pancreatic cancer cells; test: SRB analysis 2; details: KN715 200 μM, 48 hours
Method: (§3) The SRB assay was performed as follows: each cell line (100 μl) was seeded into 96-well microtiter plates at densities ranging from 5,000 to 20,000 cells/well depending on the doubling time of each cell line. After cell seeding, microtiter plates were incubated for 24 h before addition of experimental drug. Drugs were prepared at the indicated concentrations and 100 μl was added to each well; The plates were then incubated in a CO2 incubator. Then, cold TCA was added to terminate the assay. Cells were fixed in situ by gentle addition of 50 μl of cold 50% (w/v) TCA (final concentration: 10% TCA) and incubated at 4° C. for 60 min. The supernatant was discarded and the plate was washed 5 times with tap water and then air dried. A solution (100 μl) of 0.4% (w/v) SRB (Sulforhodamine B) in 1% acetic acid was added to each well, and the plate was left at room temperature for 10 minutes. After staining, the plates were air dried after washing 5 times with 1% acetic acid to remove unbound dye. The bound dye was then solubilized with 10 mM trizma base and the absorbance was recorded at 515 nm using an automated plate reader.

[23] = system: SNU-324 pancreatic cancer cells; test: SRB analysis 2; details: SNU324; KN715 200 μM; 48 hours
Method: as §3

[24] = system: MIA PaCa2 pancreatic cancer cells; test: SRB analysis 2; details: MIA PaCa-2; KN715 200 μM; 48 hours
Method: as §3

[25] = system: SU.86.86 pancreatic cancer cells; test: SRB analysis 2; details: KN715 200 μM, 48 hours
Method: as §3

[26] = system: BxPC-3 pancreatic cancer cells; test: SRB analysis 2; details: KN715 200 μM, 48 hours
Method: as §3

[27] = Breast Cancer, BT-549, MDA MB 231
[28] = Ovarian Cancer, SK-OV-3, OVCAR-3
[29] = Renal cell carcinoma, ACHN, CAKI-1

In the case of O=c1[nH]cc(F)c(=O)[nH]1 [5-FU], the “cell growth (Control = 100)” value ([1]; 5-FU 5 μM) is reported as 34.9345, the “cell growth (Control = 100)” value ([2]; 5-FU 5 μM) is reported as −4.957 and the “cell growth (Control = 100)” value ([3]; 5-FU 10 μM) is reported as 64.54. The “cell growth (Control = 100)” value ([4]; 5-FU 5 μM) was 58.333, the “cell growth (Control = 100)” value ([5]; 5-FU 10 μM) was 36.7557 and the “cell growth (Control = 100)” value ([6]; 5-FU 5 μM) was 59.14. The “cell growth (Control = 100)” value ([7]; 5-FU 5 μM) was 39.84, the “cell growth (Control = 100)” value ([8]; 5-FU 5 μM) was 73.95 and the “cell growth (Control = 100)” value ([9]; 5-FU 5 μM) was 14.62. The “cell growth (Control = 100)” value ([10]; 5-FU 5 μM) was 149.7317, the “cell growth (Control = 100)” value ([11]; 5-FU 5 μM) was 26.38 and the “cell growth (Control = 100)” value ([12]; 5-FU 5 μM) was 11.29. The “cell growth (Control = 100)” value (A375 melanoma cell line; 5-FU 5 μM) was 95.91, the “cell growth (Control = 100)” value ([13]; 5-FU 5 μM) was 77.83 and the “cell growth (Control = 100)” value ([14]; MKN45, 5-FU 5 μM) was 51.03. The “cell growth (Control = 100)” value ([15]; 5-FU 5 μM) was 51.6552, the “cell growth (Control = 100)” value ([16]; 5-FU 5 μM) was 59.41 and the “cell growth (Control = 100)” value ([17]; 5-FU 5 μM) was 28.5. For the same compound, the “cell growth (Control = 100)” value ([18]; 5-FU 5 μM) was 59.63, the “cell growth (Control = 100)” value ([19]; 5-FU 5 μM) was 80.76 and the “Positive/Negative (triple combination of KN510, KN713 and the listed anticancer drug)” value (shortened to “Positive/Negative”) (cancer cells; [27]) was “negative”. The “Positive/Negative” value (cancer cells; Colon Cancer, HT-29, COLO-205) was “Positive”, the “Positive/Negative” value (cancer cells; GBM, U87MG, T87G) was “Positive” and the “Positive/Negative” value (cancer cells; Liver Cancer, SNU-449, Huh-7) was “Positive”. For the same compound, the “Positive/Negative” value (cancer cells; NSCLC, A549, H522) was “Positive”, the “Positive/Negative” value (cancer cells; [28]) was “negative” and the “Positive/Negative” value (cancer cells; PDAC, MIA PaCa-2, PANC-1) was “Positive”. For the same compound, the “Positive/Negative” value (cancer cells; Prostate Cancer, PC-3, DU-145) was “Positive”, the “Positive/Negative” value (cancer cells; [29]) was “Positive” and the “Positive/Negative” value (cancer cells; Stomach Cancer, MKN-28, AGS) was “Positive”. For the same compound, the “Positive/Negative” value (cancer cells; melanoma, UACC62, A375) was “negative”.
For N.N.[Cl][Pt][Cl] [Cisplatin], the “cell growth (Control = 100)” value [20] was 87.30, the “cell growth (Control = 100)” value [21] was 120.49 and the “cell growth (Control = 100)” value ([1]; Cisplatin 1 μM) was 66.69. The “cell growth (Control = 100)” value ([2]; Cisplatin 1 μM) was 83.44, the “cell growth (Control = 100)” value ([3]; Cisplatin 1 μM) was 94.84 and the “cell growth (Control = 100)” value ([4]; Cisplatin 1 μM) was 97.49. The “cell growth (Control = 100)” value ([5]; Cisplatin 1 μM) was 95.91, the “cell growth (Control = 100)” value ([6]; Cisplatin 1 μM) was 91.68 and the “cell growth (Control = 100)” value ([7]; Cisplatin 1 μM) was 74.02. For the same compound, the “cell growth (Control = 100)” value ([8]; Cisplatin 1 μM) was 93.91, the “cell growth (Control = 100)” value ([9]; Cisplatin 1 μM) was 100.5484 and the “cell growth (Control = 100)” value ([10]; Cisplatin 1 μM) was 136.3148. The “cell growth (Control = 100)” value ([11]; Cisplatin 1 μM) was 118.1147, the “cell growth (Control = 100)” value ([12]; Cisplatin 1 μM) was 70.82 and the “cell growth (Control = 100)” value (A375 melanoma cell line; Cisplatin 1 μM) was 85.06. For the same compound, the “cell growth (Control = 100)” value ([13]; Cisplatin 1 μM) was 84.76, the “cell growth (Control = 100)” value ([14]; MKN-45, Cisplatin 1 μM) was 96.28 and the “cell growth (Control = 100)” value ([15]; Cisplatin 1 μM) was 67.15. For the same compound, the “cell growth (Control = 100)” value ([16]; Cisplatin 1 μM) was 113.4691, the “cell growth (Control = 100)” value ([17]; Cisplatin 1 μM) was 75.07 and the “cell growth (Control = 100)” value ([18]; Cisplatin 1 μM) was 60.85. The “cell growth (Control = 100)” value ([19]; Cisplatin 1 μM) was 75.0979, the “Positive/Negative” value (cancer cells; [27]) was “negative” and the “Positive/Negative” value (cancer cells; Colon Cancer, HT-29, COLO-205) was “negative”. The “Positive/Negative” value (cancer cells; GBM, U87MG, T87G) was “negative”, the “Positive/Negative” value (cancer cells; Liver Cancer, SNU-449, Huh-7) was “negative” and the “Positive/Negative” value (cancer cells; NSCLC, A549, H522) was “negative”. The “Positive/Negative” value (cancer cells; [28]) was “negative”, the “Positive/Negative” value (cancer cells; PDAC, MIA PaCa-2, PANC-1) was “negative” and the “Positive/Negative” value (cancer cells; Prostate Cancer, PC-3, DU-145) was “negative”. For the same compound, the “Positive/Negative” value (cancer cells; [29]) was “negative”, the “Positive/Negative” value (cancer cells; Stomach Cancer, MKN-28, AGS) was “negative” and the “Positive/Negative” value (cancer cells; melanoma, UACC62, A375) was “negative”.
With COc1ccccc1OCC(O)CN1CCN(CC(=O)Nc2c(C)cccc2C)CC1 (centres unmarked) [KN715, ranolazine] the “degree of cell growth based on the control (100%)” value (“degree … (100%)” below) [22] was 86.53% and 57.91% and 63.15%, the “degree … (100%)” value [23] was 23.58% and 23.63% and 27.45% and the “degree … (100%)” value [24] was 87.91% and 65.15% and 73.29%. For the same compound, the “degree … (100%)” value [25] was 90.37% and 63.92% and 73.38% and the “degree … (100%)” value [26] was 46.24% and 45.76% and 59.04%.
CCCS(=O)(=O)Nc1ccc(F)c(C(=O)c2c[nH]c3ncc(-c4ccc(Cl)cc4)cc23)c1F [Vermutafenib] was tested, and the “cell growth (Control = 100)” value ([6]; Vermutafenib 0.5 μM) was 2.10 and the “cell growth (Control = 100)” value (A375 melanoma cell line; Vermutafenib 0.5 μM) was 7.77.
